Values quoted from earlier work, collected in patent EP2338500A1, “Process for producing concentrated and refined actives from tissues and byproducts of Olea europaea with membrane technologies” (Phenofarm S.r.l., priority 2009, dated 2011).

System: murine leukemic cells P-388
Conditions: P-388 cells

SMILES	cytotoxic activity at a concentration ED50 [µg/mL]
C[C@@H]1O[C@@H](O[C@@H]2[C@@H](O)[C@H](OCCc3ccc(O)c(O)c3)O[C@H](COC(=O)/C=C/c3ccc(O)c(O)c3)[C@H]2O)[C@H](O)[C@H](O)[C@H]1O [isoverbascoside]	10
C[C@@H]1O[C@@H](O[C@@H]2[C@@H](O)[C@H](OCCc3ccc(O)c(O)c3)O[C@H](CO)[C@H]2OC(=O)/C=C/c2ccc(O)c(O)c2)[C@H](O)[C@H](O)[C@H]1O [verbascoside]	26
